Measurements taken from the supplement of paper PMC10307832.

Legend:
Assay in all cases: relative viability (nuclei count vs DMSO), 5 days (fraction); higher = more cells survive
[1] = compound: Cc1ccc(C(=O)Nc2ccc(CN3CCN(C)CC3)c(C(F)(F)F)c2)cc1C#Cc1cnc2cccnn12 [Ponatinib] + Cc1cc(Nc2cc(N3CCN(C)CC3)nc(Sc3ccc(NC(=O)C4CC4)cc3)n2)n[nH]1 [Tozasertib] (partner 0.1 µM)
In short: (§1)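 Lung cancer cell lines were pin-tool dosed in 1536-well plates on the day after seeding, with either a lone drug or a fixed anchor-drug dose plus five library-drug doses (not always all listed) in √10 steps. Nuclei were counted on 4× images after 5 days. Relative viability is the ratio of treated-well to vehicle-well nuclei counts, with each value a median of duplicate plates.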

[2] = compound: Cc1ccc(C(=O)Nc2ccc(CN3CCN(C)CC3)c(C(F)(F)F)c2)cc1C#Cc1cnc2cccnn12 [Ponatinib] + O=C(c1cc(Cc2n[nH]c(=O)c3ccccc23)ccc1F)N1CCN(C(=O)C2CC2)CC1 [Olaparib] (partner 8 µM)
In short: as §1

[3] = compound: Cc1ccc(C(=O)Nc2ccc(CN3CCN(C)CC3)c(C(F)(F)F)c2)cc1C#Cc1cnc2cccnn12 [Ponatinib] + CC(C)C[C@H](NC(=O)[C@H](Cc1ccccc1)NC(=O)c1cnccn1)B(O)O [Bortezomib] (partner 0.002 µM)
In short: as §1

[4] = compound: Cc1ccc(C(=O)Nc2ccc(CN3CCN(C)CC3)c(C(F)(F)F)c2)cc1C#Cc1cnc2cccnn12 [Ponatinib] + CS(=O)(=O)CCNCc1ccc(-c2ccc3ncnc(Nc4ccc(OCc5cccc(F)c5)c(Cl)c4)c3c2)o1 [Lapatinib] (partner 2 µM)
In short: as §1

[5] = compound: Cc1ccc(C(=O)Nc2ccc(CN3CCN(C)CC3)c(C(F)(F)F)c2)cc1C#Cc1cnc2cccnn12 [Ponatinib] + C[C@]1(O)C[C@@H](c2nc(-c3ccc4ccc(-c5ccccc5)nc4c3)c3c(N)nccn32)C1 [Linsitinib] (partner 1 µM)
In short: as §1

Row | Cell Line | relative viability ([1]; first compound 0.002 µM) | relative viability ([1]; first compound 0.006325 µM) | relative viability ([1]; first compound 0.06325 µM) | relative viability ([1]; first compound 0.2 µM) | relative viability ([2]; first compound 0.002 µM) | relative viability ([2]; first compound 0.006325 µM) | relative viability ([2]; first compound 0.06325 µM) | relative viability ([2]; first compound 0.2 µM) | relative viability ([3]; first compound 0.002 µM) | relative viability ([3]; first compound 0.006325 µM) | relative viability ([3]; first compound 0.06325 µM) | relative viability ([3]; first compound 0.2 µM) | relative viability ([4]; first compound 0.002 µM) | relative viability ([4]; first compound 0.006325 µM) | relative viability ([4]; first compound 0.06325 µM) | relative viability ([4]; first compound 0.2 µM) | relative viability ([5]; first compound 0.002 µM) | relative viability ([5]; first compound 0.006325 µM) | relative viability ([5]; first compound 0.06325 µM) | relative viability ([5]; first compound 0.2 µM)
1 | NCI-H2342 | 0.489 | 0.639 | 0.403 | 0.591 | 0.473 | 0.483 | 0.424 | 0.467 |  |  |  |  |  |  |  |  |  |  |  | 
2 | HCC-15 | 0.401 | 0.479 | 0.432 | 0.328 | 0.673 | 0.721 | 0.767 | 0.738 | 0.919 | 1.04 | 1.16 | 1 | 0.797 | 0.916 | 0.922 | 0.901 | 0.923 | 0.873 | 0.953 | 0.815
3 | A-427 | 0.23 | 0.227 | 0.198 | 0.167 | 0.707 | 0.835 | 0.842 | 0.66 | 0.889 | 0.976 | 1.02 | 0.905 | 1.05 | 0.96 | 1.05 | 0.98 | 1.06 | 1.09 | 1.21 | 0.981
4 | NCI-H2228 | 0.225 | 0.286 | 0.161 | 0.234 | 0.622 | 0.57 | 0.823 | 0.566 | 0.933 | 1.1 | 0.755 | 0.893 | 1.07 | 1.51 | 1.15 | 1.13 | 0.652 | 0.711 | 0.874 | 0.73
5 | NCI-H1734 | 0.267 | 0.293 | 0.217 | 0.26 | 0.62 | 0.618 | 0.673 | 0.488 | 0.87 | 0.957 | 0.917 | 0.905 | 0.955 | 0.991 | 1.09 | 0.888 | 0.792 | 0.864 | 1 | 0.754
6 | NCI-H2347 | 0.473 | 0.669 | 0.417 | 0.51 | 0.546 | 0.604 | 0.625 | 0.547 |  | 1.08 | 0.962 | 0.938 | 0.951 | 0.908 | 0.94 | 0.93 | 0.913 | 0.918 | 1.05 | 0.974
7 | PC-3 [JPC-3] | 0.851 | 0.822 | 0.951 | 0.824 |  | 1.15 | 1.3 | 1.09 | 0.826 | 0.812 | 0.961 | 0.815 | 0.43 | 0.45 | 0.492 | 0.502 | 0.981 | 0.984 | 0.992 | 0.956
8 | NCI-H1915 | 0.396 | 0.487 | 0.313 | 0.366 | 0.254 | 0.275 | 0.278 | 0.234 | 0.849 | 0.975 | 0.923 | 0.871 | 0.908 | 0.95 | 0.986 | 1.02 | 1.02 | 1.08 | 1.09 | 0.995
